Laboratory results published in article PMC3042952 (Nature structural & molecular biology, 2009).

T1: T2-TrpRS (Homo sapiens, UniProt P23381)
T1 sequence (P23381 94-471): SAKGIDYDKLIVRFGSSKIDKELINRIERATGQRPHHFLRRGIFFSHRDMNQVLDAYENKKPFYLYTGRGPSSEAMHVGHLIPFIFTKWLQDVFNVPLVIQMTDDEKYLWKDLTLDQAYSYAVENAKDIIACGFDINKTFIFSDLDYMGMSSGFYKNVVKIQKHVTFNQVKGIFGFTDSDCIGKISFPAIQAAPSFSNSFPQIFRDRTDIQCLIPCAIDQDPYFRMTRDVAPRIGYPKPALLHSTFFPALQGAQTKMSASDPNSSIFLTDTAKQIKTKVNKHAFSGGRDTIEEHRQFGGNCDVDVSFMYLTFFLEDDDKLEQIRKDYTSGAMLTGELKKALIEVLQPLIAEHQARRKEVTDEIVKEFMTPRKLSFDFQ

T2: human VE-cadherin (extracellular portion)-Fc fusion, purified (human, UniProt P33151 48-599)
T2 sequence (looked up): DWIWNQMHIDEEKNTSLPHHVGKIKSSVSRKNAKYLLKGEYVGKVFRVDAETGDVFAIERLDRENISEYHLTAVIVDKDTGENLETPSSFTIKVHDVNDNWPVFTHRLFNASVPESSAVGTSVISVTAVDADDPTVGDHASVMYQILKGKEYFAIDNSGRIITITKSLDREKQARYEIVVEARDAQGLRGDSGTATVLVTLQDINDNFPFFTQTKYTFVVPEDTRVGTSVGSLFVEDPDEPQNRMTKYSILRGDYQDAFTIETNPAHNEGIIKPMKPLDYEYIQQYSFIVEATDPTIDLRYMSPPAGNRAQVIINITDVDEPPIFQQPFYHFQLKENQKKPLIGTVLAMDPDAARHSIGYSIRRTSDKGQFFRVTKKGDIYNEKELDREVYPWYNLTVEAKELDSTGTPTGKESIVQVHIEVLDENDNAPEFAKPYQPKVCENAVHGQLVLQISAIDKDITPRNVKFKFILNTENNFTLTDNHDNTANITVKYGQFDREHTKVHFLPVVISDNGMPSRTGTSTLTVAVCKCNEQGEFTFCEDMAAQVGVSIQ

B1: full-length human tryptophanyl-tRNA synthetase (FL-TrpRS) (enzyme, UniProt P23381 1-471, looked up)
chain: MPNSEPASLLELFNSIATQGELVRSLKAGNASKDEIDSAVKMLVSLKMSYKAAAGEDYKADCPPGNPAPTSNHGPDATEAEEDFVDPWTVQTSSAKGIDYDKLIVRFGSSKIDKELINRIERATGQRPHHFLRRGIFFSHRDMNQVLDAYENKKPFYLYTGRGPSSEAMHVGHLIPFIFTKWLQDVFNVPLVIQMTDDEKYLWKDLTLDQAYSYAVENAKDIIACGFDINKTFIFSDLDYMGMSSGFYKNVVKIQKHVTFNQVKGIFGFTDSDCIGKISFPAIQAAPSFSNSFPQIFRDRTDIQCLIPCAIDQDPYFRMTRDVAPRIGYPKPALLHSTFFPALQGAQTKMSASDPNSSIFLTDTAKQIKTKVNKHAFSGGRDTIEEHRQFGGNCDVDVSFMYLTFFLEDDDKLEQIRKDYTSGAMLTGELKKALIEVLQPLIAEHQARRKEVTDEIVKEFMTPRKLSFDFQ

Assays:
T2-TrpRS = biological target: T1, T2-TrpRS; assay: isothermal titration calorimetry; format: binding
[1] = biological target: T2, human VE-cadherin (extracellular …); assay: co-IP

Molecule	Kd (T2-TrpRS) [µM]	amount bound relative to T2-TrpRS [1] [%]
N[C@@H](Cc1c[nH]c2ccccc12)C(=O)O [Trp]	11	–
B1	–	~5
